Consider 21 compounds from patent US11352340B2, “Pyridine and pyridimine compounds as PI3K-gamma inhibitors” (Incyte Corporation, priority 2016, dated 2022).

Test [1] has as its target PI3Kγ (p110γ) Recombinant Human Protein (Homo sapiens (Human), UniProt P48736). The test can be described thus: PI3K-γ Scintillation Proximity Assay. Format: biochemical. The settings on record: read-out: PI3K-gamma SPA IC50. In outline:
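Radiometric SPA: reaction at room temperature for 120 min using 2 μM ATP with [γ-33P]ATP tracer, 20 μM PIP2 substrate and 13 nM human PI3Kγ (MOPS pH 6.7, MgCl2, DTT, CHAPS; 2% DMSO). EDTA quench with WGA beads, scintillation count, and IC50 fit of percent-of-control activity.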
Background: In a scintillation proximity assay essentially only radioactivity close to the scintillant gives light.

The target in test [2] is PI3Kδ (p110δ/p85α) Recombinant Human Protein (Homo sapiens (Human), UniProt O00329). The test can be described thus: PI3Kδ Scintillation Proximity Assay. The conditions noted are these: read-out: PI3K-delta SPA IC50. Format: biochemical. In a few lines:
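Radiometric read-out: 33P-labelled PIP3 product captured on WGA SPA beads and counted, with IC50 fitted from percent activity relative to DMSO control. Enzyme (3.4 nM) was incubated 120 min at room temperature with 20 μM PIP2 and 2 μM ATP at pH 6.7, 2% DMSO.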

Test [3] concerns Phosphorylated Ribosomal Protein S6 (RPS6) in THP-1 cells. The test can be described thus: THP-1 RPS6 ELISA Assay. Type of test: cell-based, Human. The conditions noted are these: MCP-1 stimulated, phospho-RPS6 ELISA, read-out: THP p-RPS6 ELISA IC50. On the procedure:
Example A. THP-1 RPS6 ELISA Assay
To measure the Phosphorylated Ribosomal Protein S6 (RPS6) in cell lysates, THP-1 cells (Human Acute Monocytic Leukemia) are purchased from ATCC (Manassas, Va.) and maintained in RPMI with 10% FBS (Gibco/Life Technologies, Carlsbad, Calif.). For the assay, THP-1 cells are serum starved overnight in RPMI, then plated in RPMI (2×10^5 cells/well in 90 μL) into 96-well flat-bottom tissue culture treated plates (Corning, Corning, N.Y.), in the presence or absence of a concentration range of test compounds. Covered plates are incubated for 2 hours at 37° C., 5% CO2 then treated with or without 10 nM MCP-1 (MYBioSource, San Diego, Calif.) for 15 minutes at 37° C., 5% CO2. Plates are centrifuged at 1600 RPM and supernatants are removed. Cells are lysed in Lysis Buffer (Cell Signaling, Danvers, Mass.) with Protease Inhibitor (Calbiochem/EMD, Germany), PMSF (Sigma, St Louis Mo.), HALTS (Thermo Fisher, Rockford, Ill.) for 30 min on wet ice. Cell lysates are frozen at −80° C. before testing. The lysates are tested in the Human/Mouse/Rat Phospho-RPS6 ELISA (R&D Systems, Inc. Minn, Minn.). The plate is measured using a microplate reader (SpectraMax M5—Molecular Devices, LLC Sunnyvale, Calif.) set to 450 nm with a wavelength correction of 540. IC50 determination is performed by fitting the curve of inhibitor percent inhibition versus the log of the inhibitor concentration using the GraphPad Prism 5.0 software.
For orientation: In an ELISA, binding on a coated surface is turned into a signal by an enzyme label.

pIC50: −log10 of the molar value. Structures can show the parent of a compound that is named as a salt. Where two headings read alike, the source gives them in different places.

Chain of PI3Kγ (p110γ) Recombinant Human Protein (P48736 whole entry): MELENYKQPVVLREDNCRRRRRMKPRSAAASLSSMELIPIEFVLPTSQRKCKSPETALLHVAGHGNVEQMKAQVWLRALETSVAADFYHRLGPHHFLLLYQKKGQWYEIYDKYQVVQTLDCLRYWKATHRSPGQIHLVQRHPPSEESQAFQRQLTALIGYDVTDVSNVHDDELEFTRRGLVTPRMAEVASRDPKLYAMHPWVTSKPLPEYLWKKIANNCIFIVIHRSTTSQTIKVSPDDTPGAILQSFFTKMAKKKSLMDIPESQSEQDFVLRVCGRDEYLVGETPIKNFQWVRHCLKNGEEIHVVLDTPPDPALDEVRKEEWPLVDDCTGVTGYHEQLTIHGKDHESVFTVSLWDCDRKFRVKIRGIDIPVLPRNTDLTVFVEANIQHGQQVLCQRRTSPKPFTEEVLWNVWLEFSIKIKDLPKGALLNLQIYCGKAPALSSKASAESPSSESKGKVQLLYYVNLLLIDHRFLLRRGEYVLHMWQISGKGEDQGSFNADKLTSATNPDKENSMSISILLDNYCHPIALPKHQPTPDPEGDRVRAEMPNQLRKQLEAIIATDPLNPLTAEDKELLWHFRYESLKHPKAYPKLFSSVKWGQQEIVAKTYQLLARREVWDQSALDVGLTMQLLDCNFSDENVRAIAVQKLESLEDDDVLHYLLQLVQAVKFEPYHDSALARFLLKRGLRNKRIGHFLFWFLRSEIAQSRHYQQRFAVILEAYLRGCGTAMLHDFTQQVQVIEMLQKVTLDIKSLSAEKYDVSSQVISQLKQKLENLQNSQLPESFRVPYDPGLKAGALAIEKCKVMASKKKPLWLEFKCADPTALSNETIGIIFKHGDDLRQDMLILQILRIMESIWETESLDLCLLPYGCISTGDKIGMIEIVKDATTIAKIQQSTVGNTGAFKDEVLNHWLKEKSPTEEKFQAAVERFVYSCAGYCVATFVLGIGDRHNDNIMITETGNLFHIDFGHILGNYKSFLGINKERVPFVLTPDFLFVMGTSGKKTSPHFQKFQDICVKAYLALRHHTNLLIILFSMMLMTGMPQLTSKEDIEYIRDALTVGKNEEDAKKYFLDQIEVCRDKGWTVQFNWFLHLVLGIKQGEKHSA
Chain of PI3Kδ (p110δ/p85α) Recombinant Human Protein (O00329 whole entry): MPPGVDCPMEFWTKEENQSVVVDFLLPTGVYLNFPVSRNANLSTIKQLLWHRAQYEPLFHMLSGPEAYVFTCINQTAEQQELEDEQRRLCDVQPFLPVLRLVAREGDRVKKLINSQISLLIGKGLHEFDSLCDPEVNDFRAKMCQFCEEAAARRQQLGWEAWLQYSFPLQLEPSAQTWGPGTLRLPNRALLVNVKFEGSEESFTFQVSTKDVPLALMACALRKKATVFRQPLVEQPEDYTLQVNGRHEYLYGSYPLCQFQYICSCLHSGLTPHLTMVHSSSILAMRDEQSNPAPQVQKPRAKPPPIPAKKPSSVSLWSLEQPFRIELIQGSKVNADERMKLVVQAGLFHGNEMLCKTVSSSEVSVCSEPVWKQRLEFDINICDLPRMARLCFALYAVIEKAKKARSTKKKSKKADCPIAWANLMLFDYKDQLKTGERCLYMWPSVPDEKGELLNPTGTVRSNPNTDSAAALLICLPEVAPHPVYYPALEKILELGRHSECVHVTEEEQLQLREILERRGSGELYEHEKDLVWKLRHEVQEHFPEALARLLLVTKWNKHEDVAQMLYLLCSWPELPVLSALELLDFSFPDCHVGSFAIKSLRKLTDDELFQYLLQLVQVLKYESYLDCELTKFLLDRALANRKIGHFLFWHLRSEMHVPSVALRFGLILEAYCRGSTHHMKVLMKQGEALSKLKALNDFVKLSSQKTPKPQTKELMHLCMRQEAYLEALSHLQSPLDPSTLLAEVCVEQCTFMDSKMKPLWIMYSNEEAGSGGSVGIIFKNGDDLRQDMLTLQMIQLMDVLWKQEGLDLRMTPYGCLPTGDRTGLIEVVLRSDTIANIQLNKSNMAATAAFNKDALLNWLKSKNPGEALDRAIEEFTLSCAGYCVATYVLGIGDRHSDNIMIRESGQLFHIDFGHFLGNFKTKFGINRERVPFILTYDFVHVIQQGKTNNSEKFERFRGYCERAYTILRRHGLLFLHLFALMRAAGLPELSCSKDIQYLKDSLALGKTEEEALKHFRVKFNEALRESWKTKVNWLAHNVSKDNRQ
Chain of PI3Kδ (p110δ/p85α) Recombinant Human Protein (P27986 whole entry partner): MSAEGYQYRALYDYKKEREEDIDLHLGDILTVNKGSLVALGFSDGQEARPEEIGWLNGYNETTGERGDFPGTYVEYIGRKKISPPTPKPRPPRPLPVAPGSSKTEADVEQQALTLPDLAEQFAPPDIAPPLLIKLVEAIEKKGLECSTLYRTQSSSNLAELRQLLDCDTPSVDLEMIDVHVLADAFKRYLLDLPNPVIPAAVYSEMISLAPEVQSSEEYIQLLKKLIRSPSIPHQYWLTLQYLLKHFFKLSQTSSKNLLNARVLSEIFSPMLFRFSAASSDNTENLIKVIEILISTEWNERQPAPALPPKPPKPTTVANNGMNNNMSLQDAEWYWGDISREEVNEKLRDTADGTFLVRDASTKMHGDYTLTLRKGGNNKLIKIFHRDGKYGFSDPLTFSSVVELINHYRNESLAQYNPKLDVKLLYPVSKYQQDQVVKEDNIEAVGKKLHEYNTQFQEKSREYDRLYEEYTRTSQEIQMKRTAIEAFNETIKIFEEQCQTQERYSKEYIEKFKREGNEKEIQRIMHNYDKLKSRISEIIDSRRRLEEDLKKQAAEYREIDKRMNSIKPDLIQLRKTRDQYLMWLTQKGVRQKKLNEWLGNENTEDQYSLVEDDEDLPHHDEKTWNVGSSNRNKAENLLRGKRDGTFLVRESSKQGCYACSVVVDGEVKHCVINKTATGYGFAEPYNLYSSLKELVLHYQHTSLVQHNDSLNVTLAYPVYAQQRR

As to `CO[C@H]1CCN(C(=O)c2cncc(-c3ccnc(-c4nc(C)c(C)[nH]4)c3)c2)C1` [Example 212B, 2′-(4,5-Dimethyl-1H-imidazol-2-yl)-5-{[(3S)-3-methoxypyrrolidin-1-yl]carbonyl}-3,4′-bipyridine trifluoroacetate salt], the pIC50 is at least 7.30 in test [1], at least 7.00 in test [2] and 6.00 to 6.52 in test [3] (Homo sapiens).

On to `Cc1nc(-c2cc(-c3cncc(C(=O)N4CC[C@H]5CCCC[C@@H]5C4)c3)ccn2)[nH]c1C` [Example 187, 2′-(4,5-Dimethyl-1H-imidazol-2-yl)-5-[(4aR,8aS)-octahydroisoquinolin-2(1H)-ylcarbonyl]-3,4′-bipyridine trifluoroacetate salt], for which the pIC50 in test [1] is at least 7.30; in test [2], at least 7.00; in test [3] (Homo sapiens), 6.00 to 6.52.

For `Cc1[nH]c(-c2cc(-c3cncc(S(C)(=O)=O)c3)ccn2)nc1C(=O)N1CC(C#N)C1` [Example 248, 1-({5-Methyl-2-[5-(methylsulfonyl)-3,4′-bipyridin-2′-yl]-lH-imidazol-4-yl}carbonyl)azetidine-3-carbonitrile], the pIC50 in test [1] is at least 7.30; in test [2] it was at least 7.30; in test [3], 5.30 to 6.00.

As to `Cc1[nH]c(-c2cc(-c3cncc(S(C)(=O)=O)c3)ccn2)nc1C(N)=O` [Example 249, 5-Methyl-2-[5-(methylsulfonyl)-3,4′-bipyridin-2′-yl]-1H-imidazole-4-carboxamide trifluoroacetate salt], the pIC50 in test [1] is at least 7.30; in test [2], at least 7.30; in test [3] (Homo sapiens), 5.30 to 6.00.

For `COc1cncc(-c2ccnc(-c3ncc(-c4ccc(S(=O)(=O)N(C)C)cc4)[nH]3)c2)c1` [Example 83, 4-(2-(5-Methoxy-3,4′-bipyridin-2′-yl)-1H-imidazol-5-yl)-N,N-dimethylbenzenesulfonamide trifluoroacetate salt], the pIC50 was at least 7.30 in test [1], at least 7.30 in test [2] and under 5.30 in test [3] (Homo sapiens).

Take `CCc1cnc(-c2cc(-c3cncc(OC)c3)ccn2)[nH]1` [Example 85, 2′-(5-Ethyl-1H-imidazol-2-yl)-5-methoxy-3,4′-bipyridine trifluoroacetate salt]: the pIC50 in test [1] was at least 6.30; in test [2], under 6.30; in test [3] (Homo sapiens), under 5.30.

Take `Cc1nc(-c2cc(-c3cncc(C(=O)N4CCC4)c3)ccn2)[nH]c1C` [Example 191, 5-(Azetidin-1-ylcarbonyl)-2′-(4,5-dimethyl-1H-imidazol-2-yl)-3,4′-bipyridine trifluoroacetate salt]: the pIC50 in test [1] is at least 7.30; in test [2], at least 7.30; in test [3] (Homo sapiens), at least 6.52.

On to `Cc1nc(-c2cc(-c3cncc(C(=O)N4CC[C@@H](N(C)C)C4)c3)ccn2)[nH]c1C` [Example 161, (R)-(2′-(4,5-Dimethyl-1H-imidazol-2-yl)-3,4′-bipyridin-5-yl)(3-(dimethylamino)pyrrolidin-1-yl)methanone trifluoroacetate salt], for which the values for the pIC50 in test [1], in test [2] and in test [3] (Homo sapiens) were at least 7.30, at least 7.00 and at least 6.52, respectively.

As for `CS(=O)(=O)c1cncc(-c2ccnc(-c3ncc(C4CCCCC4)[nH]3)c2)c1` [Example 106, 2′-(5-Cyclohexyl-1H-imidazol-2-yl)-5-(methylsulfonyl)-3,4′-bipyridine Trifluoroacetate Salt], the results for the pIC50 in test [1], in test [2] and in test [3] (Homo sapiens) were at least 7.30, at least 7.30 and at least 6.52, respectively.

As for `Cc1[nH]c(-c2cc(-c3cncc(N4CCOCC4)c3)ccn2)nc1C(=O)N[C@@H]1CCOC1` [Example 270, 5-Methyl-2-(5-morpholin-4-yl-3,4′-bipyridin-2′-yl)-N-[(3R)-tetrahydrofuran-3-yl]-1H-imidazole-4-carboxamide trifluoroacetate salt], the pIC50 in test [1] was at least 7.30; in test [2], at least 7.30; in test [3] (Homo sapiens) it was 6.00 to 6.52.

`Cc1nc(-c2cc(-c3cncc(C(=O)N4CC[C@@H](O)C4)c3)ccn2)[nH]c1C` [Example 163, (R)-(2′-(4,5-Dimethyl-1H-imidazol-2-yl)-3,4′-bipyridin-hydroxypyrrolidin-1-yl)methanone trifluoroacetate salt]: the values for the pIC50 in test [1], in test [2] and in test [3] were at least 7.30, at least 7.30 and at least 6.52, respectively.

For the compound `Cc1[nH]c(-c2cc(-c3cncc(N4CCOCC4)c3)ccn2)nc1C(=O)N[C@H](C)c1ccccc1` [Example 274, 5-Methyl-2-(5-morpholin-4-yl-3,4′-bipyridin-2′-yl)-N-[(1R)-1-phenylethyl]-1H-imidazole-4-carboxamide trifluoroacetate salt], the pIC50 in test [1] was at least 7.30; in test [2], at least 7.30; in test [3] (Homo sapiens), 5.30 to 6.00.

Consider `Cc1nc(-c2cc(-c3cncc(C(=O)N(C)CCO)c3)ccn2)[nH]c1C` [Example 201, 2′-(4,5-Dimethyl-1H-imidazol-2-yl)-N-(2-hydroxyethyl)-N-methyl-3,4′-bipyridine-5-carboxamide trifluoroacetate salt], for which the pIC50 in test [1] was at least 7.30; in test [2], at least 6.30; in test [3] (Homo sapiens), 6.00 to 6.52.

As to `Cc1nc(-c2cc(-c3cncc(C(=O)N4CCCC4)c3)ccn2)[nH]c1C` [Example 151, (2′-(4,5-Dimethyl-1H-imidazol-2-yl)-3,4′-bipyridin-5-yl)(pyrrolidin-1-yl)methanone], the pIC50 in test [1] is at least 7.30; in test [2], at least 7.30; in test [3] (Homo sapiens), at least 6.52.

As for `Cc1[nH]c(-c2cc(-c3cncc(N4CCOCC4)c3)ccn2)nc1C(=O)N1CC(NC(=O)OC(C)(C)C)C1` [Example 264, tert-Butyl (1-{[5-methyl-2-(5-morpholin-4-yl-3,4′-bipyridin-2′-yl)-1H-imidazol-4-yl]carbonyl}azetidin-3-yl)carbamate], the pIC50 was at least 7.00 in test [1], at least 7.30 in test [2] and 5.30 to 6.00 in test [3] (Homo sapiens).

As for `Cc1nc(-c2cc(-c3cncc(C(=O)N(C)c4ccccc4)c3)ccn2)[nH]c1C` [Example 194, 2′-(4,5-Dimethyl-1H-imidazol-2-yl)-N-methyl-N-phenyl-3,4′-bipyridine-5-carboxamide trifluoroacetate salt], the pIC50 in test [1] is at least 7.30; in test [2], at least 7.30; in test [3] (Homo sapiens), at least 6.52.

Regarding `CCN(C)C(=O)c1cncc(-c2ccnc(-c3nc(C)c(C)[nH]3)c2)c1` [Example 198, 2′-(4,5-Dimethyl-1H-imidazol-2-yl)-N-ethyl-N-methyl-3,4′-bipyridine-5-carboxamide trifluoroacetate salt], the pIC50 in test [1] is at least 7.30; in test [2] it was at least 7.30; in test [3] (Homo sapiens), 6.00 to 6.52.

In the case of `COC(=O)C1CCN(C(=O)c2cncc(-c3ccnc(-c4nc(C)c(C)[nH]4)c3)c2)C1` (racemic) [Example 175, Methyl 1-{[2′-(4,5-dimethyl-1H-imidazol-2-yl)-3,4′-bipyridin-5-yl]carbonyl}pyrrolidine-3-carboxylate trifluoroacetate salt], the pIC50 in test [1] is at least 7.30; in test [2], at least 7.30; in test [3] (Homo sapiens), at least 6.52.

For `Cc1nc(-c2cc(-c3cncc(C(=O)N4CCC(c5cnccn5)C4)c3)ccn2)[nH]c1C` (stereo not drawn) [Example 197, 2′-(4,5-Dimethyl-1H-imidazol-2-yl)-5-[(3-pyrazin-2-ylpyrrolidin-1-yl)carbonyl]-3,4′-bipyridine trifluoroacetate salt], the pIC50 in test [1] was at least 7.00; in test [2], at least 7.30; in test [3] (Homo sapiens), 6.00 to 6.52.

`COc1cncc(-c2ccnc(-c3ncc(-c4ccccc4)[nH]3)c2)c1` [Example 19, 5-Methoxy2′-(5-phenyl-1H-imidazol-2-yl)-3,4′-bipyridin trifluoroacetate salt]: the figures for the pIC50 in test [1], in test [2] and in test [3] (Homo sapiens) were at least 7.30, at least 7.30 and 5.30 to 6.00, respectively.

As to `Cc1[nH]c(-c2cc(-c3cncc(N4CCOCC4)c3)ccn2)nc1C(=O)NC1CCSCC1` [Example 281, 5-Methyl-2-(5-morpholin-4-yl-3,4′-bipyridin-2′-yl)-N-(tetrahydro-2H-thiopyran-4-yl)-1H-imidazole-4-carboxamide trifluoroacetate salt], the figures for the pIC50 in test [1], in test [2] and in test [3] (Homo sapiens) were at least 7.30, at least 7.30 and at least 6.52, respectively.
